Assays:
Malassezia furfur = test: Anti-fungal efficacy, germ count reduction; format: cell-based; conditions: 0.12%
Protocol: Assay of the anti-fungal efficacy of zinc pyrithione, piroctone, climbazole and sclareolide on Malassezia furfur was assayed.

CYP27B1 = CYP27B1 expression in ex vivo scalp skin biopsies (immunohistochemistry); format: cell-based, human
Protocol: (§1) Method: CYP27B1 was assessed by immunohistochemistry with a specific antibody. Biopsies of healthy human scalp skin in culture were treated with sclareolide diluted at 0.12% in placebo (ceraphyl 368 (Ashland) applied once a day for 48 hours topically (20 μl/biopsy). Control biopsies received only ceraphyl 368. The immunostaining was performed using paraffin sections incubated in the presence of anti-CYP27B1 antibody (rabbit monoclonal, Abcam). After an hour and a half of incubation followed by rinses, the sections were incubated in the presence of the secondary anti-rabbit antibody coupled with a fluorophore (Alexa Fluor® 488, Invitrogen). The sections were then examined under a fluorescence microscope (Nikon Eclipse Ni-E microscope). CYP27B1 expression was then observed (using NiS-AR Nikon acquisition software) and quantified by image analysis (Volocity® image analysis software, Improvision).

total lipids = test: Total lipid content in ex vivo scalp skin biopsies (Nile Red staining); format: cell-based, human; conditions: 0.12%
Protocol: as §1
Method: total lipids were assessed by fluorescent staining by using the fluorescent dye Nile Red. The treatment of the biopsies was the same than in example 4. […] The sections were then examined under a fluorescence microscope (Nikon Eclipse Ni-E microscope). Red fluorescence was then observed (using NiS-AR Nikon acquisition software) and quantified by image analysis (Volocity® image analysis software, Improvision).

Malassezia restricta = test: Broth microdilution (MIC) assay, resazurin fluorescence; format: cell-based
Protocol: Sclareolide antifungal potential on Malassezia restricta was evaluated by the broth microdilution method.
Method: Malassezia restricta was routinely grown on modified Leeman-Notman (mLN) agar. The broth microdilution assay was performed following EUCAST guidelines (www.eucast.org) with slight modifications. Between five and ten colonies were suspended in a modified RPMI 1640 media supplemented with resazurin at a D.O (Density Optical) of 0.1. In a 96 well plate, serial dilutions of sclareolide (0.00023% to 0.12%), zinc pyrithione (0.015%-0.0023%) and Ketoconazol (0.5-0.015 μg/ml) were prepared in modified RPMI 1640. An equal volume of Malassezia restricta inoculum was added to the test samples at different concentrations. Following 48 h-60 h of incubation at 34° C., resazurin fluorescence was analyzed at 530 nm and 590 nm.
Results are presented as relative fluorescence intensity compared to DMSO control. the MIC is defined as the lowest drug concentration that inhibited growth.

[1] = system: Pseudomonas aeruginosa ATCC 27950; conditions: cited from earlier work
[2] = Solubility in surfactant solution (12% Sodium laureth sulfate/2% Cocamidopropyl betaine); format: physicochemical; conditions: 12% Sodium laureth sulfate (SLES)/2% Cocamidopropyl betaine (CAPB), 1 hour stirring
keratin 10 = test: Keratin 10 expression in ex vivo scalp skin biopsies (immunohistochemistry); format: cell-based, human; conditions: 0.12%
Protocol: as §1
Method: Keratin 10 was assessed by immunohistochemistry. The protocol was the same as in example 4 with the use of anti-keratin 10 antibody (rabbit monoclonal, Abcam).

[3] = system: Staphylococcus aureus ATCC 25923; conditions: cited from earlier work
[4] = system: Enterococcus faecalis ATCC 29212; conditions: cited from earlier work
[5] = system: Escherichia coli ATCC 25922; conditions: cited from earlier work
[6] = 48 h-60 h incubation at 34° C., vs DMSO control

CC(C)(C)C(=O)C(Oc1ccc(Cl)cc1)n1ccnc1 (stereo not shown) [Climbazole, climbazole]
Reduction % (6 h) (Malassezia furfur): 38.5%
Reduction % (24 h) (Malassezia furfur): 33.80%

Cc1cc(CC(C)CC(C)(C)C)n(O)c(=O)c1 (stereo not shown) [OCT, piroctone]
Reduction % (6 h) (Malassezia furfur): 15.4%
Reduction % (24 h) (Malassezia furfur): 35.30%

CC1(C)CCC[C@]2(C)[C@H]3CC(=O)O[C@]3(C)CC[C@@H]12 [sclareolide, Sclareolide]
CYP27B1 protein expression (% placebo) (CYP27B1; 0.12% in ceraphyl 368, topical once a day, 48 hours, placebo = 100%): 138%
increase in CYP27B1 labelling intensity (CYP27B1; 0.12%, 48-hour treatment, compared to placebo, very significant): +38%
increase in lipid labelling intensity (total lipids; 48-hour treatment, compared to placebo, significant): +46%
Total lipid content (% placebo) (total lipids; 48 hours, placebo = 100%): 146%
concentration at which growth of Malassezia restricta was completely inhibited (MIC) (Malassezia restricta; [6]): 0.12%
concentration from which growth of Malassezia restricta was significantly inhibited (Malassezia restricta; [6]): 0.001875%
antibacterial activity [1]: good antibacterial activity
dissolution in surfactant solution [2]: could not be dissolved
increase in keratin 10 labelling intensity (keratin 10; 48-hour treatment, compared to placebo, highly significant): +20%
Keratin 10 expression (% placebo) (keratin 10; 48 hours, placebo = 100%): 120%
antibacterial activity [3]: good antibacterial activity
antibacterial activity [4]: good antibacterial activity
antibacterial activity [5]: good antibacterial activity
Reduction % (6 h) (Malassezia furfur): 38.5%
Reduction % (24 h) (Malassezia furfur): 32.40%

zinc pyrithione [ZPT]
inhibition of Malassezia restricta (Malassezia restricta; tested in parallel at the same concentrations): high inhibition
Reduction % (6 h) (Malassezia furfur): 47.4%
Reduction % (24 h) (Malassezia furfur): 93.10%
